Here are results for 10 compounds from ChEMBL document CHEMBL1909046, “DrugMatrix in vitro pharmacology data”.

Chain of Matrix metalloproteinase-9 (P14780 whole entry): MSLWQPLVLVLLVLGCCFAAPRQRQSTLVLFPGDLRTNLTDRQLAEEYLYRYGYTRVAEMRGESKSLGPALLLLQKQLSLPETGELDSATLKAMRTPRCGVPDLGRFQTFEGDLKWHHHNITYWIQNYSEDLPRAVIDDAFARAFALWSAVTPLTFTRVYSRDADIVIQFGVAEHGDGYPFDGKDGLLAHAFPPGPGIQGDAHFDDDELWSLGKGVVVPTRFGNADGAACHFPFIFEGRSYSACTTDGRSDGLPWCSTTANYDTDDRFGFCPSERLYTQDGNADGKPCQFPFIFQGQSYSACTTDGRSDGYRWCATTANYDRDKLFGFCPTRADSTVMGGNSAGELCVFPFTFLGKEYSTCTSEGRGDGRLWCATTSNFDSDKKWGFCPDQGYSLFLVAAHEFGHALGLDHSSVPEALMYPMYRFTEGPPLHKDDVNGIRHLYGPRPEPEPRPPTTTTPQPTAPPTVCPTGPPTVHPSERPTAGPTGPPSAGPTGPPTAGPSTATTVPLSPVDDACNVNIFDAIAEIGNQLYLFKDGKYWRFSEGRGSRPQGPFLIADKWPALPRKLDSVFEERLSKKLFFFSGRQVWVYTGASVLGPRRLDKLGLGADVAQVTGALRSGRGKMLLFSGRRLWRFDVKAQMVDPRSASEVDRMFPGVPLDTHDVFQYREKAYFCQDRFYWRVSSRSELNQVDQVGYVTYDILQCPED

One test deals with T1, Muscarinic acetylcholine receptor M2 (Homo sapiens, UniProt P08172).
T1 sequence (P08172 whole entry): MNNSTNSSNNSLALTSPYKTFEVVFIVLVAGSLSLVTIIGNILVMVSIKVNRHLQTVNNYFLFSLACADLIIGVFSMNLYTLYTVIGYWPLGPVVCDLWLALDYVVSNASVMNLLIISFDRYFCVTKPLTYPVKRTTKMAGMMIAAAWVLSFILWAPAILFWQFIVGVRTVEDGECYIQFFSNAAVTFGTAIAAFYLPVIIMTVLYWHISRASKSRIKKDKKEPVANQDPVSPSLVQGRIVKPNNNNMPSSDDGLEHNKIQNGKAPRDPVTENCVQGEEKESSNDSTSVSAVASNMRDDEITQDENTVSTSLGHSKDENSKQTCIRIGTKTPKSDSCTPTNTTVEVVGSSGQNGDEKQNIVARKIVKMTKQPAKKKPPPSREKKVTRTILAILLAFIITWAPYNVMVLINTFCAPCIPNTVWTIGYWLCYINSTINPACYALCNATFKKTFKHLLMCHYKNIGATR
Test: not given
It counts as cell membranes, CHO-K1, Membrane. Particulars: cho-k1.
As to `C#C[C@]1(OC(C)=O)CC[C@H]2[C@@H]3CCC4=CC(=O)CC[C@@H]4[C@H]3CC[C@@]21C` [NORETHINDRONE ACETATE], the IC50 result was “Not Active”.
For `COc1ccc2[nH]c([S+]([O-])Cc3ncc(C)c(OC)c3C)nc2c1` (stereo not given) [OMEPRAZOLE], the IC50 result was “Not Active”.
Still for that read-out and setting: in the case of `Cc1nccn1CC1CCc2c(c3ccccc3n2C)C1=O` (stereo not given) [ONDANSETRON] it was “Not Active”.
In the case of `CCn1cc(C(=O)O)c(=O)c2cc(F)c(N3CCN(C)CC3)cc21` [PEFLOXACIN], the IC50 result is recorded as “Not Active”.
As to `CCCCOc1ccc(OCCCN2CCOCC2)cc1` [PRAMOXINE], the IC50 entry is reported as “Not Active”.
Regarding `O=C(C1CCCCC1)N1CC(=O)N2CCc3ccccc3C2C1` (stereo not given) [PRAZIQUANTEL], the IC50 result is on record as “Not Active”.
With `CCN(CC)CCOC(=O)c1ccc(N)cc1` [PROCAINE], the IC50 entry is “Not Active”.
With `CCCN(CCC)C(=O)C(CCC(=O)O)NC(=O)c1ccccc1` (stereo not given) [PROGLUMIDE], the IC50 entry is on record as “Not Active”.
On the same count and under the same terms, in the case of `NC(=O)c1cnccn1` [PYRAZINAMIDE] it was “Not Active”; in that of `Cc1cc2cc3c(C)cc(=O)oc3c(C)c2o1` [TRIOXSALEN], “Not Active”.

A further test concerns the target T2, D(4) dopamine receptor (Homo sapiens, UniProt P21917).
T2 sequence (P21917 whole entry): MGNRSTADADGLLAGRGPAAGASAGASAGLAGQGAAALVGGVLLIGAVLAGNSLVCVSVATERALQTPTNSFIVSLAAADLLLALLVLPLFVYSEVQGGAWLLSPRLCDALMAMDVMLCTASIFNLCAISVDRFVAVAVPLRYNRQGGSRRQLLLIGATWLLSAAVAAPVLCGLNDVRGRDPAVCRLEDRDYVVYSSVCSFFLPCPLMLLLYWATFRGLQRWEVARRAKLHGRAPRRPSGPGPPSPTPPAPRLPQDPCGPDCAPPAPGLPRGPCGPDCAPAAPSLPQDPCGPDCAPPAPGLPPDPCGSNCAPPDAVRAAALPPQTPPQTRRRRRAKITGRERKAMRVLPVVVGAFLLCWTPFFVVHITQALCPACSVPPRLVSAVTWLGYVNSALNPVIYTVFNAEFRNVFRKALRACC
The experiment in a line: DRUGMATRIX: Dopamine D4.2 radioligand binding (ligand: [3H] Spiperone). It counts as cell membranes, Membrane. Particulars: cho-k1; Not Active = under 50% inhibition at 10 µM.
As for `C#C[C@]1(OC(C)=O)CC[C@H]2[C@@H]3CCC4=CC(=O)CC[C@@H]4[C@H]3CC[C@@]21C` [NORETHINDRONE ACETATE], the IC50 entry is reported as “Not Active”.
For the compound `COc1ccc2[nH]c([S+]([O-])Cc3ncc(C)c(OC)c3C)nc2c1` (stereo not given) [OMEPRAZOLE], the IC50 result was “Not Active”.
Turning to `Cc1nccn1CC1CCc2c(c3ccccc3n2C)C1=O` (stereo not given) [ONDANSETRON], the IC50 entry is “Not Active”.
`CCn1cc(C(=O)O)c(=O)c2cc(F)c(N3CCN(C)CC3)cc21` [PEFLOXACIN]: the IC50 entry is “Not Active”.
As for `CCCCOc1ccc(OCCCN2CCOCC2)cc1` [PRAMOXINE], the IC50 result is reported as “Not Active”.
The same measure, in the same setting: for `O=C(C1CCCCC1)N1CC(=O)N2CCc3ccccc3C2C1` (stereo not given) [PRAZIQUANTEL] the value was “Not Active”.
In the case of `CCN(CC)CCOC(=O)c1ccc(N)cc1` [PROCAINE], the IC50 entry is “Not Active”.
As for `CCCN(CCC)C(=O)C(CCC(=O)O)NC(=O)c1ccccc1` (stereo not given) [PROGLUMIDE], the IC50 entry is reported as “Not Active”.
The same measure, in the same setting: for `NC(=O)c1cnccn1` [PYRAZINAMIDE] the value was “Not Active”; for `Cc1cc2cc3c(C)cc(=O)oc3c(C)c2o1` [TRIOXSALEN], “Not Active”.

A further test addresses Carbonic anhydrase 2 (Homo sapiens, UniProt P00918). Put plainly: DRUGMATRIX: Carbonic Anhydrase II enzyme inhibition (substrate: 4-Nitrophenyl acetate (4-NPA)). The format is tissue-based, Erythrocyte. As to conditions: erythrocyte; Not Active = under 50% inhibition at 10 µM.
In the case of `C#C[C@]1(OC(C)=O)CC[C@H]2[C@@H]3CCC4=CC(=O)CC[C@@H]4[C@H]3CC[C@@]21C` [NORETHINDRONE ACETATE], the IC50 result is on record as “Not Active”.
Consider `COc1ccc2[nH]c([S+]([O-])Cc3ncc(C)c(OC)c3C)nc2c1` (stereo not given) [OMEPRAZOLE], for which the IC50 result was “Not Active”.
Take `Cc1nccn1CC1CCc2c(c3ccccc3n2C)C1=O` (stereo not given) [ONDANSETRON]: the IC50 entry is recorded as “Not Active”.
Same read-out and setting: for `CCn1cc(C(=O)O)c(=O)c2cc(F)c(N3CCN(C)CC3)cc21` [PEFLOXACIN] the value was “Not Active”; for `CCCCOc1ccc(OCCCN2CCOCC2)cc1` [PRAMOXINE], “Not Active”; for `O=C(C1CCCCC1)N1CC(=O)N2CCc3ccccc3C2C1` (stereo not given) [PRAZIQUANTEL], “Not Active”.
For the compound `CCN(CC)CCOC(=O)c1ccc(N)cc1` [PROCAINE], the IC50 result was “Not Active”.
As to `CCCN(CCC)C(=O)C(CCC(=O)O)NC(=O)c1ccccc1` (stereo not given) [PROGLUMIDE], the IC50 result is on record as “Not Active”.
Regarding `NC(=O)c1cnccn1` [PYRAZINAMIDE], the IC50 result is “Not Active”.
For the compound `Cc1cc2cc3c(C)cc(=O)oc3c(C)c2o1` [TRIOXSALEN], the IC50 entry is reported as “Not Active”.

Another test addresses Matrix metalloproteinase-9 (Homo sapiens, UniProt P14780). Put plainly: biochemical. The format is cell-based.
Settings: not given
In the case of `C#C[C@]1(OC(C)=O)CC[C@H]2[C@@H]3CCC4=CC(=O)CC[C@@H]4[C@H]3CC[C@@]21C` [NORETHINDRONE ACETATE], the IC50 entry is given as “Not Active”.
In the case of `COc1ccc2[nH]c([S+]([O-])Cc3ncc(C)c(OC)c3C)nc2c1` (stereo not given) [OMEPRAZOLE], the IC50 entry was “Not Active”.
Still for that read-out and setting: for `Cc1nccn1CC1CCc2c(c3ccccc3n2C)C1=O` (stereo not given) [ONDANSETRON] the value was “Not Active”.
As for `CCn1cc(C(=O)O)c(=O)c2cc(F)c(N3CCN(C)CC3)cc21` [PEFLOXACIN], the IC50 entry is reported as “Not Active”.
Consider `CCCCOc1ccc(OCCCN2CCOCC2)cc1` [PRAMOXINE], for which the IC50 result is recorded as “Not Active”.
On to `O=C(C1CCCCC1)N1CC(=O)N2CCc3ccccc3C2C1` (stereo not given) [PRAZIQUANTEL], for which the IC50 result is “Not Active”.
On the same count and under the same terms, for `CCN(CC)CCOC(=O)c1ccc(N)cc1` [PROCAINE] the value was “Not Active”; for `CCCN(CCC)C(=O)C(CCC(=O)O)NC(=O)c1ccccc1` (stereo not given) [PROGLUMIDE], “Not Active”.
As for `NC(=O)c1cnccn1` [PYRAZINAMIDE], the IC50 entry is listed as “Not Active”.
In the case of `Cc1cc2cc3c(C)cc(=O)oc3c(C)c2o1` [TRIOXSALEN], the IC50 result was “Not Active”.

Tested on in a further test: not listed separately
The experiment in a line: DRUGMATRIX: Calcium Channel Type L, Benzothiazepine radioligand binding (ligand: [3H] Diltiazem). It counts as cell membranes, Rattus norvegicus, Wistar, Brain, Membrane. Particulars: Not Active = under 50% inhibition at 10 µM.
On to `C#C[C@]1(OC(C)=O)CC[C@H]2[C@@H]3CCC4=CC(=O)CC[C@@H]4[C@H]3CC[C@@]21C` [NORETHINDRONE ACETATE], for which the IC50 result is on record as “Not Active” and the Ki result was “Not Active”.
For the compound `COc1ccc2[nH]c([S+]([O-])Cc3ncc(C)c(OC)c3C)nc2c1` (stereo not given) [OMEPRAZOLE], the IC50 result is on record as “Not Active” and the Ki result is “Not Active”.
With `Cc1nccn1CC1CCc2c(c3ccccc3n2C)C1=O` (stereo not given) [ONDANSETRON], the IC50 result is “Not Active” and the Ki entry is “Not Active”.
On to `CCn1cc(C(=O)O)c(=O)c2cc(F)c(N3CCN(C)CC3)cc21` [PEFLOXACIN], for which the IC50 entry is listed as “Not Active” and the Ki entry is on record as “Not Active”.
On to `CCCCOc1ccc(OCCCN2CCOCC2)cc1` [PRAMOXINE], for which the IC50 result is recorded as “Not Active” and the Ki entry is “Not Active”.
Turning to `O=C(C1CCCCC1)N1CC(=O)N2CCc3ccccc3C2C1` (stereo not given) [PRAZIQUANTEL], the IC50 entry is on record as “Not Active” and the Ki entry was “Not Active”.
For the compound `CCN(CC)CCOC(=O)c1ccc(N)cc1` [PROCAINE], the IC50 entry is recorded as “Not Active” and the Ki result was “Not Active”.
With `CCCN(CCC)C(=O)C(CCC(=O)O)NC(=O)c1ccccc1` (stereo not given) [PROGLUMIDE], the IC50 result is “Not Active” and the Ki result is “Not Active”.
Regarding `NC(=O)c1cnccn1` [PYRAZINAMIDE], the IC50 result is reported as “Not Active” and the Ki result was “Not Active”.
Turning to `Cc1cc2cc3c(C)cc(=O)oc3c(C)c2o1` [TRIOXSALEN], the IC50 entry is “Not Active” and the Ki result is recorded as “Not Active”.

Tested on in a further test: not listed separately
Put plainly: DRUGMATRIX: Potassium Channel [KATP] radioligand binding (ligand: [3H] Glyburide). The format is cell membranes, Membrane. Particulars: hit-t15; Not Active = under 50% inhibition at 10 µM.
`C#C[C@]1(OC(C)=O)CC[C@H]2[C@@H]3CCC4=CC(=O)CC[C@@H]4[C@H]3CC[C@@]21C` [NORETHINDRONE ACETATE]: the IC50 entry is listed as “Not Active” and the Ki result is “Not Active”.
On to `COc1ccc2[nH]c([S+]([O-])Cc3ncc(C)c(OC)c3C)nc2c1` (stereo not given) [OMEPRAZOLE], for which the IC50 result is given as “Not Active” and the Ki entry is listed as “Not Active”.
Take `Cc1nccn1CC1CCc2c(c3ccccc3n2C)C1=O` (stereo not given) [ONDANSETRON]: the IC50 result is reported as “Not Active” and the Ki entry was “Not Active”.
`CCn1cc(C(=O)O)c(=O)c2cc(F)c(N3CCN(C)CC3)cc21` [PEFLOXACIN]: the IC50 result is “Not Active” and the Ki result is recorded as “Not Active”.
Turning to `CCCCOc1ccc(OCCCN2CCOCC2)cc1` [PRAMOXINE], the IC50 entry is “Not Active” and the Ki entry was “Not Active”.
With `O=C(C1CCCCC1)N1CC(=O)N2CCc3ccccc3C2C1` (stereo not given) [PRAZIQUANTEL], the IC50 entry is “Not Active” and the Ki result is given as “Not Active”.
Regarding `CCN(CC)CCOC(=O)c1ccc(N)cc1` [PROCAINE], the IC50 result is “Not Active” and the Ki entry is given as “Not Active”.
Regarding `CCCN(CCC)C(=O)C(CCC(=O)O)NC(=O)c1ccccc1` (stereo not given) [PROGLUMIDE], the IC50 result is listed as “Not Active” and the Ki result is on record as “Not Active”.
Take `NC(=O)c1cnccn1` [PYRAZINAMIDE]: the IC50 result is listed as “Not Active” and the Ki result is listed as “Not Active”.
Turning to `Cc1cc2cc3c(C)cc(=O)oc3c(C)c2o1` [TRIOXSALEN], the IC50 entry is “Not Active” and the Ki result is listed as “Not Active”.
